Where two headings read alike, the source gives them in different places.

Experiment [1] has as its target T1, porcine pancreatic α-amylase (Sus scrofa, UniProt P00690).
T1 construct: purchased Sigma-Aldrich (St. Louis, MO, USA); host or cells: porcine pancreas
T1 sequence (P00690 16-511): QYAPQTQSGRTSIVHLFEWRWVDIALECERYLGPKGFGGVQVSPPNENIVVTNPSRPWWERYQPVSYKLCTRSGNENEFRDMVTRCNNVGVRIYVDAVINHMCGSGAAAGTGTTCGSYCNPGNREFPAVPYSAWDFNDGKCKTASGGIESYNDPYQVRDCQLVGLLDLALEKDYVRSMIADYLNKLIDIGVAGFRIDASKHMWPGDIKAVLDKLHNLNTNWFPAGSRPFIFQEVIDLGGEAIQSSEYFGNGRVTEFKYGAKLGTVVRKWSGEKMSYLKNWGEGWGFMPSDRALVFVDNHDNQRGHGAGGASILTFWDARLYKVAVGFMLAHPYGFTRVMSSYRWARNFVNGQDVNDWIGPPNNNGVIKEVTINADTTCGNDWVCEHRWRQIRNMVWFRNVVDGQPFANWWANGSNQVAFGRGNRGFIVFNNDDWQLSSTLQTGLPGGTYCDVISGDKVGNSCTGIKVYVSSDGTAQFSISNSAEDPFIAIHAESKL
Nature of the experiment: α-amylase inhibition assay. It counts as biochemical. The following applies: for inhibition ability on α-amylase: dosage 0–2.5 mg/mL; for inhibition of α-amylase activity: 0.5–2 mg/mL.

For experiment [2], the target named is T2, pancreatic lipase (Homo sapiens, UniProt P16233).
T2 sequence (P16233 17-465): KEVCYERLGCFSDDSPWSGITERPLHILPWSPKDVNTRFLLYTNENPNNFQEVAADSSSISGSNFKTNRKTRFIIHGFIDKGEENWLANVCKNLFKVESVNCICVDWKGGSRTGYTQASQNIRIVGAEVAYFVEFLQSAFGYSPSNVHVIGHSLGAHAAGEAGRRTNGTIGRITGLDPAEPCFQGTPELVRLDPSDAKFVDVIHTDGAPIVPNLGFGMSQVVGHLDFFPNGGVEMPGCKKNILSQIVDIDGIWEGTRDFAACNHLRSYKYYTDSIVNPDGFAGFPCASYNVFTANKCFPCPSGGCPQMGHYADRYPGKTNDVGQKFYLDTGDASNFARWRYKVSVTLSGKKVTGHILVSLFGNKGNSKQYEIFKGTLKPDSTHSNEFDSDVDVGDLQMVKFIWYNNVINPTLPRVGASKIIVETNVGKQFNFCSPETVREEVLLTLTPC
Nature of the experiment: lipase inhibition assay. The experiment is classed as biochemical. The following applies: for inhibition of pancreatic lipase activity: 0.5–2 mg/mL.

In experiment [3] the target is T3, rabbit lung ACE (Oryctolagus cuniculus, UniProt P12822).
T3 construct: purchased Sigma-Aldrich (St. Louis, MO, USA); host or cells: rabbit lung
T3 sequence (P12822 34-1310): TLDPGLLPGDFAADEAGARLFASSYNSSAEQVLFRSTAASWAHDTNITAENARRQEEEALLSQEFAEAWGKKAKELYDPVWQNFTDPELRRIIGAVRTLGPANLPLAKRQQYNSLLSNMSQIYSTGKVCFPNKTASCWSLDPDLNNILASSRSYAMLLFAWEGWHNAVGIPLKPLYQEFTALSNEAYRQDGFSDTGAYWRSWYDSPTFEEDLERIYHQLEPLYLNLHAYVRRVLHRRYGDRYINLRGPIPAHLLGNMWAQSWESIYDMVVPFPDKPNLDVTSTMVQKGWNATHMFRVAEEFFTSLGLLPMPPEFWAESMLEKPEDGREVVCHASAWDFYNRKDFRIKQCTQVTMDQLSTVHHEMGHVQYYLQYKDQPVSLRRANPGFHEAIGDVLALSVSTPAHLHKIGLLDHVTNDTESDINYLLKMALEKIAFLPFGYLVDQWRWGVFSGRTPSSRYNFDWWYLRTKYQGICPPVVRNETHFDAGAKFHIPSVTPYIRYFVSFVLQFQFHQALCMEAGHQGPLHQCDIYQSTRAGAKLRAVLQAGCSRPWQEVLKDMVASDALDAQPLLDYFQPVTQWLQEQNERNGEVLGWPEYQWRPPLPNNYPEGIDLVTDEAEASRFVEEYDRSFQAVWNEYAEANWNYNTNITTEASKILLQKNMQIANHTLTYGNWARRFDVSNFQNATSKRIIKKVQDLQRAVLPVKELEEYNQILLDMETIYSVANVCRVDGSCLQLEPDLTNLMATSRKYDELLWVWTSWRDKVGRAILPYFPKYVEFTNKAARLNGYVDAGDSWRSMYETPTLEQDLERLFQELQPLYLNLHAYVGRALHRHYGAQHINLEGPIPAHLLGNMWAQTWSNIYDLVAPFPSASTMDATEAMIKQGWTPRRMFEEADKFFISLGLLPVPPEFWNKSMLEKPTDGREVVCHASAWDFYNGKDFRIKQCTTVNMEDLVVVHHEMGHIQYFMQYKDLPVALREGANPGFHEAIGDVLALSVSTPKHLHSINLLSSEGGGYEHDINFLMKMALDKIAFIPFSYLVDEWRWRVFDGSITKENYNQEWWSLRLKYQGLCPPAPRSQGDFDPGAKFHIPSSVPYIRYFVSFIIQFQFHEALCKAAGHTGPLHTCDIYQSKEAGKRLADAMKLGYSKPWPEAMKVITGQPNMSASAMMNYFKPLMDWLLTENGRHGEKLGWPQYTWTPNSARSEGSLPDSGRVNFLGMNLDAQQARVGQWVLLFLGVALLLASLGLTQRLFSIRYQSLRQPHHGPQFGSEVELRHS
Nature of the experiment: ACE inhibition assay (hippuric acid by HPLC). The experiment is classed as biochemical.

For experiment [4], the target named is α-glucosidase. Nature of the experiment: α-glucosidase inhibition assay. The experiment is classed as biochemical.
Experiment [5] is described as follows: scavenging ability on DPPH radicals. The following applies: 0–250 μg/mL. As to the method: The scavenging ability of each extract on DPPH radicals was determined based on the method by Shimada et al.. Each extract was prepared in methanol at 0–1000 μg extract/mL, and 4 mL was mixed with 1 mL of methanolic solution containing DPPH radicals to a final concentration of 0.2 mM DPPH. After the mixture was shaken vigorously, it was left to stand in the dark for 30 min, and then the absorbance of the mixture was measured at 517 nm against a blank. […] Ascorbic acid, BHA, α-tocopherol, acetoxyvalerenic acid, and valerenic acid were compared. Each analysis was carried out in quadruplicate.
(In general: Loss of DPPH colour is used to gauge radical scavenging.)

The mark [6] stands for this setting: read-out: IC50, ACE (converted).

On to `O=C(O)c1ccc(O)c(O)c1` [Protocatechuic acid, protocatechuic acid], for which the “inhibition ability on α-amylase” value in experiment [1] is 0–88.03%. Besides, the IC50 was 4.37 mM in experiment [2] and 16 mM in experiment [3] (setting [6]). Besides, the “IC50, α-Glucosidase” value in experiment [4] worked out at 3.721 ± 0.042B mg/mL.

With `O=C(/C=C/c1ccc(O)c(O)c1)O[C@@H]1C[C@](O)(C(=O)O)C[C@@H](O)[C@H]1O` [Chlorogenic acid], the “inhibition ability on α-amylase” value in experiment [1] was 0–89.52%. In addition, the IC50 in experiment [1] (read-out: IC50, α-Amylase (converted)) is 5.06 mM; in experiment [2], 3.13 mM; in experiment [3] (setting [6]), 13.6 mM.

For `O=C(O)/C=C/c1ccc(O)c(O)c1` [Caffeic acid, caffeic acid], the IC50 in experiment [2] is 4.03 mM; in experiment [3] (setting [6]), 0.522 mM. Also, the “IC50, α-Glucosidase” value in experiment [4] turned out to be 1.289 ± 0.024E mg/mL.

As for `C[C@H]1O[C@H](O[C@H]2[C@H](O)[C@@H](O)[C@@H](O[C@H]3[C@H](O)[C@@H](O)C(O)O[C@@H]3CO)O[C@@H]2CO)[C@H](O)[C@@H](O)[C@@H]1N[C@H]1C=C(CO)[C@@H](O)[C@H](O)[C@H]1O` (stereo partly drawn) [Acarbose, acarbose, reference compound], the “inhibitory ability of α-amylase” value in experiment [1] (5–25 μg/mL) is on record as 47–88%.

Regarding `CC(=O)O[C@@H]1CC(C)=C2[C@H]1[C@H](C)CC[C@H]2/C=C(\C)C(=O)O` [Acetoxyvalerenic acid, acetoxyvalerenic acid], in experiment [5], the “ability to scavenge DPPH radicals” value is “not able to scavenge the DPPH radicals”. The “inhibition of α-amylase activity” value in experiment [1] is “could not effectively inhibit”. Further, the “inhibition of pancreatic lipase activity” value in experiment [2] is “Neither”. The “inhibitory ability on ACE” value in experiment [3] (2 mg/mL) was found to be 15%. Moreover, in experiment [4], the “IC50, α-Glucosidase” value came out at 1.827 ± 0.005D mg/mL.

Regarding `CC1=C2[C@H](/C=C(\C)C(=O)O)CC[C@@H](C)[C@H]2CC1` [Valerenic acid], the “ability to scavenge DPPH radicals” value in experiment [5] is “not able to scavenge the DPPH radicals”. Further, in experiment [1], the “inhibition of α-amylase activity” value is reported as “could not effectively inhibit”. Further, the “inhibition of pancreatic lipase activity” value in experiment [2] is on record as “Neither”. Also, the “IC50, ACE” value in experiment [3] is given as 0.225 ± 0.023D mg/mL. In addition, in experiment [4], the “IC50, α-Glucosidase” value is 0.617 ± 0.028F mg/mL.

As to `O=C(O)c1cc(O)c(O)c(O)c1` [Gallic acid, gallic acid], the IC50 in experiment [1] was 7.39 mM; in experiment [2] it was 3.66 mM; in experiment [3] it was 12.3 mM. For the same compound, the “inhibition ability on α-amylase” value in experiment [1] is recorded as 0–95.22%. Moreover, the “IC50, α-Glucosidase” value in experiment [4] came out at 2.164 ± 0.026C mg/mL.

For orientation: IC50 means the concentration at which inhibition is half-maximal.

These data come from paper PMC9914926, “Bioactive Compounds of Underground Valerian Extracts and Their Effect on Inhibiting Metabolic Syndrome-Related Enzymes Activities” (Foods, 2023).
